Source: patent publication US20250002854A1, “METHODS OF GENERATING POPULATIONS OF TUMOUR-INFILTRATING T CELLS” (LYTIX BIOPHARMA AS, priority 2016, published 2025)
Square brackets hold non-standard residues; d marks the D form. Ends that are not written are not given here. Dip = N[C@H](C(=O)O)C(c1ccccc1)c1ccccc1

Experiments:
[1] = system: B16F1 cells; test: Release of ATP (luciferin-luciferase); type: cell-based, murine; details: 54 μM, up to 120 min
Description: Serum-free RPMI 1640 treated cells functioned as a negative and blank control, respectively. Extracellular levels of ATP were measured at the end of the experiment using a luciferin-based ENLITEN ATP Assay kit (Promega, Madison, WI, USA), in which ATP-driven chemoluminescence was recorded on a Luminescence Microplate Reader (Labsystems Luminoskan®, Finland), and expressed as relative light units (RLU).

[2] = system: A20, murine lymphoma; test: LysoTracker DND-26 in non-melanocytic cell line; type: cell-based; details: data not shown
[3] = system: human A547 cells; test: TEM of A547 cells, mitochondrial membrane; type: cell-based; details: 10 μg/ml, 60 minutes
[4] = system: A375 cells; test: Release of HMGB1 (Western blot); type: cell-based, human; details: 35 μM, up to 60 min
Description: A375 cells were seeded with 3×10^5 cells/well in 6-well plates in a complete media, and allowed to adhere overnight. Cells were treated with LTX-315 or LTX-328 at 35 μM, and incubated at 37° C. and 5% CO2 for different time points (5, 10, 15, 30, 60 min), and negative controls were serum-free RPMI-1650. Supernatants (S) were collected and centrifuged at 1,400 g for five minutes, and cell lysates (L) were harvested after washing with PBS twice and then subsequently lysed using a 4×Sample buffer (Invitrogen, number), 0.1 M DTT (Sigma number) and water. Supernatants were concentrated using Amicon Ultra 50 K centrifugal filters (Millipore UFC505024), and the cell lysate was sonicated. Both supernatants and lysate were boiled and resolved in a 10% sodium dodecyl sulfate polyacrylamide gel electrophoresis (SDS-PAGE), and then electro transferred to a polyvindiline difluoride (PVDF) membrane (Millipore). The membrane was blocked in 5% milk and incubated with the HMGB1 antibody (rabbit, polyclonal, abcam ab 18256); the membrane was then rinsed several times with TBST, incubated with a horseradish peroxidase (HRP)-conjugated secondary antibody (abcam ab6721), rinsed again with TBST and then developed using WB Luminol Reagent (Santa Cruz Biotechnology, Heidelberg, Germany).

[5] = system: B16F1 cells; test: Secondary tumour challenge of animals cured by LTX-315; type: in vivo, C57BL/6 mice
Description: Tumour cells were harvested, washed in RPMI-1640 and injected intradermally (i.d.) into the right side of the abdomen in C57BL/6 mice (5×10^4 B16F1 cells per mouse/50 μl RPMI-1640). Palpable tumours (20-30 mm^2) were injected i.t. with single doses of LTX-315 or LTX-328 dissolved in saline (1.0 mg peptide/50 μl saline) once a day for 3 consecutive days, and the vehicle control was saline only (0.9% NaCl in sterile H2O). Tumour size was measured using an electronic caliper and expressed as the area of an ellipse [(maximum dimension/2)×(minimum dimension/2)×π]. Animals were then euthanized when the product of the perpendicular tumour dimensions reached 130 mm^2 or when tumour ulceration developed. […] Animals surviving the i.d. tumour re-challenge were later given a second tumour rechallenge intravenously (i.v.) (2×10^5 cells) through the tail vein. Lungs were harvested on day 19 after the i.v. re-challenge. All mice were monitored for tumour size and survival.

[6] = system: MCA205 sarcomas; test: T-cell depletion, tumour growth of MCA205 sarcomas; type: in vivo, C57BL/6 mice; details: three intratumoural daily injections of 300 μg
Description: Mice were subcutaneously injected into the right flank with 1×10^6 MCA205 cells. Tumour cell lines were inoculated into C57BL/6 mice. Tumour surfaces (longest dimension×perpendicular dimension) were routinely monitored by caliper. When tumours reached a size of 20-25 mm^2 (day 0), mice were administered intratumourally with three consecutive daily injections of 300 μg LTX-315. In T-cell depletion experiments (FIG. 24), anti-CD4 and anti-CD8 monoclonal antibodies (mAbs) (GK1.5 and 53-6.72, respectively; 200 μg per mouse) or their isotype controls (LTF-2 and 2A3, respectively) were injected intraperitoneally 3 and 4 days before the first LTX-315 injection and continued every other 7 days. All mAbs for in vivo use were obtained from BioXcell (West Lebanon, NH, USA), using the recommended isotype control mAbs.

[7] = system: rat sarcoma model; test: Rat sarcoma model with three lesions, tumour growth by live imaging; type: in vivo; details: LTX-315 injected into one subcutaneous lesion

Cl.Cl.NCCNC(=O)C(CN)(CCCc1ccccc1)CCCc1ccccc1 [LTX-401]
extracellular concentration of ATP [1]: quickly rose 60 min after initiating treatment | LysoTracker DND-26 signal [2]: achieved similar results

K-K-W-W-K-K-W-Dip-K-NH2 (KKWWKKW[Dip]K-NH2) [LTX-315]
effect on mitochondrial membrane [3]: disintegration of the mitochondrial membrane | HMGB1 translocation from cell lysate to supernatant [4]: gradual translocation from the cell lysate to the supernatant detected | animals with no tumour take ([5]; i.d. re-challenge): 60% | animals with tumour growth absent ([5]; i.d. re-challenge with B16F1 cells 4-5 weeks after CR): 15 out of the 25 | CD3+ T cell infiltration of lung tumour foci ([5]; i.v. re-challenge, histology): significantly more infiltrated by CD3+ T cells | mean # tumour foci (lung) ([5]; i.v. re-challenge, n=7): 15.86 | antitumor effects in presence of antibodies depleting CD4+ and CD8+ T cells [6]: completely abrogated the antitumor effects | effect on lesions (intraperitoneal and two subcutaneous tumours) [7]: eradicated all three lesions
